Measurements taken from US5734014A, “Elafin derivative” (Tsumura & Co., priority 1992, dated 1998).

Key:
elastase = assay: Elastase inhibiting activity of purified recombinant elafin (Referential Examples 1 and 2); assay type: biochemical; details: elafin produced by Escherichia coli, purified by reverse phase HPLC
neutrophilic elastase = target: T1, neutrophilic elastase (Homo sapiens, UniProt P08246); assay: Test 1: neutrophilic elastase inhibiting activity of non-oxidized and oxidized elafins (AAPV-pNA substrate); assay type: biochemical
T1 construct: purchased Elastin Products Co., Inc
T1 sequence (P08246 30-267): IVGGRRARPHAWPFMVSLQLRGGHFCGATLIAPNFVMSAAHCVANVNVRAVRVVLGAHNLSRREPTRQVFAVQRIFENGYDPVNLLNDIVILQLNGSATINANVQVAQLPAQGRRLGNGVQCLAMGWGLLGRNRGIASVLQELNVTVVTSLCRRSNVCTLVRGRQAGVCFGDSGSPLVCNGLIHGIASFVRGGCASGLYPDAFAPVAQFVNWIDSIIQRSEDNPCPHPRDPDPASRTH
Description: Natural elafin and the elafin derivatives were oxidized, and variations in their inhibiting activity against neutrophilic elastase were investigated. Oxidative reaction solutions of natural elafin and the elafin derivatives as elastase inhibitors were each prepared by adding 220 μM of H2 O2 and 6 nM of myeloperoxidase (product of Elastin Products Co., Ltd.) to 250 μl of a phosphate buffer (product of TAKARA SHUZO CO., LTD.) which contained 5 μg of the corresponding elafin or elafin derivative, incubating the resulting mixture at 37° C. for 20 minutes and then adding the same volume of a reaction terminating solution (catalase 0.2 mg/ml, 5 mM methionine).
Further, the measurement of elastase activity was conducted as will be described below by using 5-100 μl of the oxidative reaction solution (inhibitor concentration: 10 μg/ml) of natural elafin and the elafin derivatives prepared as described above.

endotoxin-treated mice = assay: Test 3: survival rate in mouse endotoxin shock model; assay type: in vivo, ICR male mice; details: test substance i.v. four times, survivors/10 mice
Description: Using a mouse endotoxin shock model, effects of the elafin derivative according to this invention on the survival rate were investigated while using natural elafin and urinastatin, which is a urinary trypsin inhibitor having anti-elastase action, as comparative substances. After endotoxin was administered at 6 mg/Kg to the caudal veins of ten 7 weeks-old ICR male mice (CHARLES RIVER JAPAN, INC.) in each group, the mice were administered with one of the test substance. Their survival rate was observed along the passage of time. The test substance was administered to the caudal veins of the mice four times in total, that is, 10 minutes before the administration of endotoxin and 3 hours, 6 hours and 12 hours after its administration.
Employed as the test substances were natural elafin, the elafin derivative according to the present invention in which the methionine at the 25th had been modified to leucine (hereinafter called "L-elafin") and urinastatin ("MIRACLID"™;product of MOCHIDA PHARMACEUTICAL CO., LTD.; hereinafter called "UTI").
Natural elafin and L-elafin were each dissolved in a buffer of 20 mM sodium acetate physiological saline, in which 1% bovine serum albumin had been added, whereas UTI was dissolved in the physiological saline.
As a control, a buffer of 20 mM sodium acetate physiological saline, in which 1% bovine serum albumin had been added, was used.

[1] = 12 hrs after administration of endotoxin (6 mg/Kg, caudal vein)
[2] = 14 hrs after administration of endotoxin (6 mg/Kg, caudal vein)
[3] = 16 hrs after administration of endotoxin (6 mg/Kg, caudal vein)
[4] = 18 hrs after administration of endotoxin (6 mg/Kg, caudal vein)
[5] = 20 hrs after administration of endotoxin (6 mg/Kg, caudal vein)
[6] = 22 hrs after administration of endotoxin (6 mg/Kg, caudal vein)
[7] = 24 hrs after administration of endotoxin (6 mg/Kg, caudal vein)
[8] = 26 hrs after administration of endotoxin (6 mg/Kg, caudal vein)
[9] = 28 hrs after administration of endotoxin (6 mg/Kg, caudal vein)
[10] = 30 hrs after administration of endotoxin (6 mg/Kg, caudal vein)
[11] = 36 hrs after administration of endotoxin (6 mg/Kg, caudal vein)
[12] = 48 hrs after administration of endotoxin (6 mg/Kg, caudal vein)

Row | Substance | elastase inhibiting activity (elastase) | stability to oxidation (neutrophilic elastase; general statement of the inventors' findings) | variation in inhibiting activity against neutrophilic elastase by oxidation (neutrophilic elastase; oxidized with 220 μM H2O2 and 6 nM myeloperoxidase, 37° C., 20 minutes, FIG. 3) | Survival rate (endotoxin-treated mice; [1]) | Survival rate (endotoxin-treated mice; [2]) | Survival rate (endotoxin-treated mice; [3]) | Survival rate (endotoxin-treated mice; [4]) | Survival rate (endotoxin-treated mice; [5]) | Survival rate (endotoxin-treated mice; [6]) | Survival rate (endotoxin-treated mice; [7]) | Survival rate (endotoxin-treated mice; [8]) | Survival rate (endotoxin-treated mice; [9]) | Survival rate (endotoxin-treated mice; [10]) | Survival rate (endotoxin-treated mice; [11]) | Survival rate (endotoxin-treated mice; [12])
1 | Natural elafin: 57-residue elastase inhibitor isolated from psoriatics (SEQ ID NO:2); produced recombinantly in Escherichia coli or yeast (AQEPVKGPVSTKPGSCPIILIRCAMLNPPNRCLKDTDCPGIKKCCEGSCGMACFVPQ) | strong inhibiting activity | unstable to oxidation | significantly decrease | 10/10 | 10/10 | 9/10 | 8/10 | 5/10 | 5/10 | 3/10 | 2/10 | 1/10 | 0/10 | 0/10 | 0/10
2 | Reduced elafin: elafin in the completely reduced form, before formation of S--S bonds (AQEPVKGPVSTKPGSCPIILIRCAMLNPPNRCLKDTDCPGIKKCCEGSCGMACFVPQ) | did not show any inhibiting activity | – | – | – | – | – | – | – | – | – | – | – | – | – | –
3 | urinastatin (MIRACLID) [UTI, product of MOCHIDA PHARMACEUTICAL CO., LTD] | – | – | – | 10/10 | 10/10 | 8/10 | 8/10 | 4/10 | 4/10 | 2/10 | 1/10 | 0/10 | 0/10 | 0/10 | 0/10
